Active and inactive are the calls of the source. The rule behind the calls is not given here.
How the values were obtained:
[1] = molecular target: GTPase KRas (Homo sapiens) (UniProt P01116); assay: Inhibition of wild type KRAS (unknown origin) downstream signalling in human HCT-116 cells assessed as suppression of ERK phosphorylation incubated for 24 hrs by pull down based Western blotting analysis; format: cell-based; details: dose <= 8.0 µM, DDE = dose-dependent effect
[2] = test system: GTPase KRas (Homo sapiens), P01116 [G12D]; assay: Inhibition of KRAS G12D mutant (unknown origin) downstream signalling in human SW1990 cells assessed as suppression of Raf phosphorylation incubated for 24 hrs by pull down based Western blotting analysis; format: cell-based; details: dose <= 16.0 µM, DDE = dose-dependent effect
GTPase KRas (Homo sapiens), P01116 [G12D], sequence (P01116 whole entry G12D, looked up): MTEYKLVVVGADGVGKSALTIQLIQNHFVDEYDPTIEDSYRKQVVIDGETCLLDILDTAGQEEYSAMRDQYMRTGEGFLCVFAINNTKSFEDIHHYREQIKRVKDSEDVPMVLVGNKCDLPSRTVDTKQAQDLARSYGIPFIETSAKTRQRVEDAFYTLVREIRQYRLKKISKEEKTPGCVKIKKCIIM

[3] = Toxicity in BALB/c mouse allografted with mouse CT26 cells assessed as RDW-CV level at 40 to 60 mg/kg, ip administered once a day for 10 days (reference value: 13.3 to 23.8 %); format: organism-based; details: in vivo, 240 h, dose 40-60 mg/kg, time 10 day
CT26 [4] = assay: Induction of apoptosis in mouse CT26 cells assessed as necrotic cells at 8 uM measured after 24 hrs by PI/Annexin V staining based flow cytometric analysis (reference value: 0.789%); format: functional
[5] = Toxicity in BALB/c mouse allografted with mouse CT26 cells assessed as body weight loss at 40 to 60 mg/kg, ip administered once a day for 10 days; format: organism-based; details: in vivo, 240 h, dose 40-60 mg/kg, time 10 day
CT26 [6] = assay: Inhibition of KRAS G12D mutant (unknown origin) downstream signalling in mouse CT26 cells assessed as suppression of ERK phosphorylation incubated for 24 hrs by pull down based Western blotting analysis; format: cell-based; details: dose <= 16.0 µM, DDE = dose-dependent effect
CT26 [7] = assay: Induction of apoptosis in mouse CT26 cells assessed as late apoptotic cells at 8 uM measured after 24 hrs by PI/Annexin V staining based flow cytometric analysis (reference value: 3.21%); format: functional
[8] = Toxicity in BALB/c mouse allografted with mouse CT26 cells assessed as MCHC level at 40 to 60 mg/kg, ip administered once a day for 10 days (reference value: 338 to 361 g/L); format: organism-based; details: in vivo, 240 h, dose 40-60 mg/kg, time 10 day
[9] = test system: GTPase KRas (Homo sapiens), P01116 [G12D]; assay: Inhibition of KRAS G12D mutant downstream signalling in human SW1990 cells assessed as suppression of ERK phosphorylation incubated for 24 hrs by pull down based Western blotting analysis; format: cell-based; details: dose <= 16.0 µM, DDE = dose-dependent effect
[10] = Toxicity in BALB/c mouse allografted with mouse CT26 cells assessed as effect on liver morphology at 40 to 60 mg/kg, ip administered once a day for 10 days by H and E staining based microscopic analysis; format: organism-based; details: in vivo, 240 h, dose 40-60 mg/kg, time 10 day
SW1990 [11] = assay: Induction of apoptosis in human SW1990 cells assessed as viable cells at 4 uM measured after 24 hrs by PI/Annexin V staining based flow cytometric analysis (reference value: 82.9%); format: functional; details: read-out: Activity
[12] = Toxicity in BALB/c mouse allografted with mouse CT26 cells assessed as basophil level at 40 to 60 mg/kg, ip administered once a day for 10 days (reference value: 0.050 to 40.3 10^9/L); format: organism-based; details: in vivo, 240 h, dose 40-60 mg/kg, time 10 day
[13] = Toxicity in BALB/c mouse allografted with mouse CT26 cells assessed as MCV level at 40 to 60 mg/kg, ip administered once a day for 10 days (reference value: 16 to 47 fL); format: organism-based; details: in vivo, 240 h, dose 40-60 mg/kg, time 10 day
CT26 [14] = assay: Antiproliferative activity against mouse CT26 cells harboring KRAS G12D mutant assessed as inhibition of cell viability after 24 hrs by MTT assay; format: functional, cell-based; details: CT26, 24 h
SW1990 [15] = assay: Induction of apoptosis in human SW1990 cells assessed as viable cells at 2 uM measured after 24 hrs by PI/Annexin V staining based flow cytometric analysis (reference value: 82.9%); format: functional; details: read-out: Activity
CT26 [16] = assay: Induction of apoptosis in mouse CT26 cells assessed as early apoptotic cells at 2 uM measured after 24 hrs by PI/Annexin V staining based flow cytometric analysis (reference value: 11.2%); format: functional
CT26 [17] = assay: Induction of apoptosis in mouse CT26 cells assessed as viable cells at 4 uM measured after 24 hrs by PI/Annexin V staining based flow cytometric analysis (reference value: 84.8%); format: functional; details: read-out: Activity
[18] = Toxicity in BALB/c mouse allografted with mouse CT26 cells assessed as PCT level at 40 to 60 mg/kg, ip administered once a day for 10 days (reference value: 0.226 to 6.4 %); format: organism-based; details: in vivo, 240 h, dose 40-60 mg/kg, time 10 day
SW1990 [19] = assay: Antiproliferative activity against human SW1990 cells harboring KRAS G12D mutant assessed as inhibition of cell viability after 24 hrs by MTT assay; format: functional, cell-based; details: SW1990, 24 h
[20] = Toxicity in BALB/c mouse allografted with mouse CT26 cells assessed as HGB level at 40 to 60 mg/kg, ip administered once a day for 10 days (reference value: 0.319 to 108 g/L); format: organism-based; details: in vivo, 240 h, dose 40-60 mg/kg, time 10 day
GTPase KRas = GTPase KRas (Homo sapiens, UniProt P01116, G12D); assay: Binding affinity to human his-tagged KRAS G12D mutant assessed as dissociation constant by isothermal titration calorimetry
GTPase KRas, sequence (P01116 whole entry G12D): as the sequence (P01116 whole entry G12D, looked up) above

[21] = molecular target: GTPase KRas (Homo sapiens) (UniProt P01116); assay: Inhibition of wild type KRAS (unknown origin) downstream signalling in human HCT-116 cells assessed as suppression of Raf phosphorylation incubated 24 hrs by pull down based Western blotting analysis; format: cell-based; details: dose <= 8.0 µM, DDE = dose-dependent effect
[22] = Toxicity in BALB/c mouse allografted with mouse CT26 cells assessed as monocyte level at 40 to 60 mg/kg, ip administered once a day for 10 days (reference value: 0.170 to 0.540 10^9/L); format: organism-based; details: in vivo, 240 h, dose 40-60 mg/kg, time 10 day
CT26 [23] = assay: In vivo inhibition of KRAS G12D mutant (unknown origin) mediated downstream signalling in mouse CT26 cells allografted in BALB/c mouse assessed as decrease in phosphorylation level of ErK in tumor tissue at 40 to 60 mg/kg, ip administered once a day for 10 days by Western blotting analysis; format: functional, organism-based; details: dose 40-60 mg/kg, time 10.0 day
CT26 [24] = assay: Inhibition of GTP bound KRAS in mouse CT26 cells assessed as down regulation of KRAS-GTP protein level incubated for 12 hrs by Pull-Down based Western blotting analysis; format: functional, cell-based; details: dose 10-20 µM, DDE = dose-dependent effect
CT26 [25] = assay: Antitumor activity against mouse CT26 cells allografted in BALB/c mouse assessed as inhibition of tumor growth at 60 mg/kg, ip administered once a day for 10 days; format: functional; details: CT26, 240 h, time 10 day, read-out: TGI
CT26 [26] = assay: Induction of apoptosis in mouse CT26 cells assessed as necrotic cells at 2 uM measured after 24 hrs by PI/Annexin V staining based flow cytometric analysis (reference value: 0.789%); format: functional
CT26 [27] = assay: Induction of apoptosis in mouse CT26 cells assessed as necrotic cells at 4 uM measured after 24 hrs by PI/Annexin V staining based flow cytometric analysis (reference value: 0.789%); format: functional
CT26 [28] = assay: Antitumor activity against mouse CT26 cells allografted in BALB/c mouse assessed as tumor volume at 60 mg/kg, ip administered once a day for 10 days; format: functional; details: time 10 day
[29] = Toxicity in BALB/c mouse allografted with mouse CT26 cells assessed as neutrophil level at 40 to 60 mg/kg, ip administered once a day for 10 days (reference value: 1.080 to 1.250 10^9/L); format: organism-based; details: in vivo, 240 h, dose 40-60 mg/kg, time 10 day
CT26 [30] = assay: Antitumor activity against mouse CT26 cells allografted in BALB/c mouse assessed as tumor volume at 40 mg/kg, ip administered once a day for 10 days; format: functional; details: time 10 day

GTPase KRas (Homo sapiens), sequence (P01116 whole entry, looked up): as the sequence (P01116 whole entry G12D, looked up) above, with D12G counted along it

Activity [1]: Dde
Activity [2]: Dde
Activity [9]: Dde
IC50 (CT26 [14]): 2 µM
IC50 (SW1990 [19]): 2.1 µM
Kd (GTPase KRas): 0.033 µM
Activity [21]: Dde
Compound: COc1ccc(C(F)(F)F)cc1-c1cc2c(N3CC4CCC(C3)N4)ncnc2s1
Activity [3]: 14%
Activity (CT26 [4]): 6.61%
Activity [5]: Non-Toxic
Activity (CT26 [6]): Dde
Activity (CT26 [7]): 60.4%
Activity [8]: 336 g/L
Activity [10]: Non-Toxic
viability at 4 µM (SW1990 [11]): 47.9%
Activity [12]: 0.01 10^9/L
Activity [13]: 16.1 fL
viability at 2 µM (SW1990 [15]): 74.4%
Activity (CT26 [16]): 15.4%
viability at 4 µM (CT26 [17]): 38.8%
Activity [18]: 0.372%
Activity [20]: 0.41 g/L
Activity [22]: 0.15 10^9/L
Activity (CT26 [23]): Active
inhibition (CT26 [24]): Dde
inhibition in vivo at 60 mg/kg (CT26 [25]): 53%
Activity (CT26 [26]): 1.39%
Activity (CT26 [27]): 3.87%
Activity (CT26 [28]): 11%
Activity [29]: 1.92 10^9/L
Activity (CT26 [30]): 17%

Source: ChEMBL document CHEMBL5154793, “Discovery of Thieno[2,3-d]pyrimidine-based KRAS G12D inhibitors as potential anticancer agents via combinatorial virtual screening” (Eur J Med Chem, 2022)
